Assay results: paper PMC9215129, “An acetyltransferase controls the metabolic flux in rubromycin polyketide biosynthesis by direct modulation of redox tailoring enzymes” (Chemical Science, 2022)

How the values were obtained:
[1] = molecular target: T1, GrhO10 (Streptomyces sp. JP95, UniProt Q8KSW1); assay: HPLC, UPLC-HRMS/MS of product […]; assay type: biochemical; conditions: 4a/4b generated in situ by cascade (GrhO5, GrhO1, NADPH); redox form not resolved; low turnover
T1 construct: recombinant from E. coli, Ni-NTA purified (His-tag)
T1 sequence (Q8KSW1 1-249): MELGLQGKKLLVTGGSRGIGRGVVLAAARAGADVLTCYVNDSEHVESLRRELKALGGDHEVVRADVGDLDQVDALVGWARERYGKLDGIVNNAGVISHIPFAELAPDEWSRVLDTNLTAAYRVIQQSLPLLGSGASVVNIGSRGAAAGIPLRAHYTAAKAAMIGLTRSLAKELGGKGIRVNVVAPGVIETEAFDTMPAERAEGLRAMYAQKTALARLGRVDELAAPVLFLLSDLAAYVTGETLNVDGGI

[2] = molecular target: T2, GrhO6 (Streptomyces sp. JP95, UniProt Q8KSX5, K57M); assay: HPLC assay, 5a/5b formation; assay type: biochemical; conditions: with HyalJ; activity similar to wild type; substrate not named explicitly for the variant
T2 construct: recombinant, purified; group A FAD monooxygenase; acetylated at K5 by HyalJ in some assays
T2 sequence (Q8KSX5 entry or part of it K57M): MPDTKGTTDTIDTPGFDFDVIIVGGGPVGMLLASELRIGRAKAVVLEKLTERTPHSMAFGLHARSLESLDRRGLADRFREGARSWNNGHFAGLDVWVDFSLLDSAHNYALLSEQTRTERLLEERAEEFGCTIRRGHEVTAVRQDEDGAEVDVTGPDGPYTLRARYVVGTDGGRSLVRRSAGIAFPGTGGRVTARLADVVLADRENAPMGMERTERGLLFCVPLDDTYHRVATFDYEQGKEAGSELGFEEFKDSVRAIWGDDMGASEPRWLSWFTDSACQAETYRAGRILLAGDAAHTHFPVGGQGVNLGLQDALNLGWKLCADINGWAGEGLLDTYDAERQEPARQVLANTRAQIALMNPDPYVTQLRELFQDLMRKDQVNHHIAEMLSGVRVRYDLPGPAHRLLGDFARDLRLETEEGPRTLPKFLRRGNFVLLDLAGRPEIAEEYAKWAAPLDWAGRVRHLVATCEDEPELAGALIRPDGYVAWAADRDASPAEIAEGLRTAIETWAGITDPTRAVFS

[3] = molecular target: T3, GrhO6 (Streptomyces sp. JP95, UniProt Q8KSX5); assay: HPLC time course in cascade; assay type: biochemical; conditions: NADPH, GrhO5, GrhO1, with HyalJ; 4a generated in situ from 3b
T3 construct: recombinant, purified; group A FAD monooxygenase; acetylated at K5 by HyalJ in some assays
T3 sequence (Q8KSX5 1-520): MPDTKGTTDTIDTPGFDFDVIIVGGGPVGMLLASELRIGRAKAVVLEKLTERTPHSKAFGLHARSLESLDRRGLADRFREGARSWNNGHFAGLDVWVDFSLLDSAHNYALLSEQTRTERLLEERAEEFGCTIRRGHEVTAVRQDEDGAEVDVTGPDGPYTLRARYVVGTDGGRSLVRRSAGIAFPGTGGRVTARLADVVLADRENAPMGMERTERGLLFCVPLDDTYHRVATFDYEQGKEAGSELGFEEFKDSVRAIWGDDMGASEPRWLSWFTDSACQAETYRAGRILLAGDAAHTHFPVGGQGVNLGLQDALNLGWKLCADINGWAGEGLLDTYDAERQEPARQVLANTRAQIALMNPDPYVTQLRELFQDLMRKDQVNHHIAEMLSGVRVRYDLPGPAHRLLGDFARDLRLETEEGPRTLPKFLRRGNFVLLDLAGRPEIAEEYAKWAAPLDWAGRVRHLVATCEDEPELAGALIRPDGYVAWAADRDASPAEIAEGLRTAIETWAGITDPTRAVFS

[4] = molecular target: T4, GrhO6 (Streptomyces sp. JP95, UniProt Q8KSX5, K425M); assay: HPLC assay, 5a/5b formation; assay type: biochemical; conditions: with HyalJ; activity similar to wild type; substrate not named explicitly for the variant
T4 construct: recombinant, purified; group A FAD monooxygenase; acetylated at K5 by HyalJ in some assays
T4 sequence (Q8KSX5 entry or part of it K425M): as the sequence (Q8KSX5 entry or part of it K57M) above, with M57K, K425M counted along it

[5] = molecular target: T3, GrhO6; assay: turnover before digest and UPLC-HRMS; assay type: biochemical; conditions: with AcCoA and HyalJ
[6] = molecular target: T5, HyalO10 (Streptomyces hyaluromycini, UniProt Z9NP16K308); assay: HPLC coupled cascade assay, 6a/6b formation; assay type: biochemical; conditions: 5a/5b generated in situ (GrhO5, GrhO1, GrhO6, HyalJ, NADPH); redox form not resolved
T5 construct: heterologously produced and purified; hyaluromycin gene cluster, homologue of GrhO10
T5 sequence (Z9NP16K308 1-249): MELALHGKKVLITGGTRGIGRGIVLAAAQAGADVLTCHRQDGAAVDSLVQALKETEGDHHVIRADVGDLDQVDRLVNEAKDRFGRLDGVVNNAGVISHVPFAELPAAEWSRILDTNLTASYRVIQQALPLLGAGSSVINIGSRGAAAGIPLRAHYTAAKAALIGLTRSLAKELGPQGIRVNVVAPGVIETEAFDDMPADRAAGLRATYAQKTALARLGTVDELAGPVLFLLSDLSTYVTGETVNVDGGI

[7] = molecular target: T1, GrhO10; assay: HPLC time course of 6b formation; assay type: biochemical; conditions: isolated 5b
[8] = molecular target: T6, HyalJ (Streptomyces hyaluromycini, UniProt Z9LXF2D8B5); assay: co-purification from E. coli, UPLC-HRMS of released ligand; assay type: binding; conditions: acyl donor
T6 construct: recombinant from E. coli, N-terminal GB1 solubility tag; GNAT, homologue of GrhJ
T6 sequence (Z9LXF2D8B5 1-325): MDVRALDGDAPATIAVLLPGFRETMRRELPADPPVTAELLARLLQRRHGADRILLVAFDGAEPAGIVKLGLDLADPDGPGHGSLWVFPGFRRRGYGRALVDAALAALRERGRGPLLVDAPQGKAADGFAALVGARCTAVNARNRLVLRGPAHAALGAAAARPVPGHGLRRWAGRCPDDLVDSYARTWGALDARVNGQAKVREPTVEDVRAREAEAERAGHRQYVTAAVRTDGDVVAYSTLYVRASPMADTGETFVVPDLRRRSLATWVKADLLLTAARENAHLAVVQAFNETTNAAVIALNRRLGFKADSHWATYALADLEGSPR

[9] = molecular target: T3, GrhO6; assay: HPLC enzyme assay; assay type: biochemical; conditions: inhibitor of turnover of 4a(b); 8 produced in situ, its structure only inferred from MS
[10] = equal effect to AcCoA with apo HyalJ

## COc1cc(O)c2c(O)c3c(c(O)c2c1O)C(=O)OC1(CCc2cc4cc(C)oc(=O)c4c(O)c2O1)C3=O (centres unmarked) [4a, dihydrolenticulone]
[1]
  HPLC, UPLC-HRMS/MS of product 8: ketoreductases are also capable of catalyzing keto reduction of 4a/4b
[2]
  HPLC assay, 5a/5b formation: both were able to mediate the generation of 5a/5b in the presence of HyalJ
[3]
  HPLC time course in cascade: Compound 4a is then further converted into 5a/5b
[4]
  HPLC assay, 5a/5b formation: both were able to mediate the generation of 5a/5b in the presence of HyalJ

## COC1=CC(=O)c2c(O)c3c(c(O)c2C1=O)C(=O)OC1(CCc2cc4cc(C)oc(=O)c4c(O)c2O1)C3=O (centres unmarked) [4b, lenticulone]
[5]
  turnover before digest and UPLC-HRMS: GrhO6 after turnover of 4b in the presence of AcCoA and HyalJ

## COc1cc(O)c2c(O)c3c(c(O)c2c1O)OC1(CCc2cc4cc(C)oc(=O)c4c(O)c2O1)C3=O (centres unmarked) [5a, dihydro-7,8-dideoxy-6-oxo-griseorhodin C]
[6]
  HPLC coupled cascade assay, 6a/6b formation: When GrhO10 was substituted for HyalO10 in the enzymatic assays, 6a/6b was formed

## COC1=CC(=O)c2c(O)c3c(c(O)c2C1=O)OC1(CCc2cc4cc(C)oc(=O)c4c(O)c2O1)C3=O (centres unmarked) [5b, 7,8-dideoxy-6-oxo-griseorhodin C]
[7]
  HPLC time course of 6b formation: the enzymatic formation of 6b was clearly observed in the presence of GrhO10

## CC(=O)SCCNC(=O)CCNC(=O)[C@H](O)C(C)(C)COP(=O)(O)OP(=O)(O)OC[C@H]1O[C@@H](n2cnc3c(N)ncnc32)[C@H](O)[C@@H]1OP(=O)(O)O [acetyl-CoA]
[8]; acetylates GrhO6 at K5, restores activity of apo HyalJ
  co-purification from E. coli, UPLC-HRMS of released ligand: which clearly confirmed the presence of AcCoA

## COc1cc(O)c2c(O)c3c(c(O)c2c1O)C(=O)OC1(CCc2cc4cc(C)oc(=O)c4c(O)c2O1)C3O (centres unmarked) [compound 8, 8]
[9]
  HPLC enzyme assay: GrhO6 showed strongly decreased activity on 4a(b) even in the presence of only small amounts

## CC(C(=O)O)C(=O)SCCNC(=O)CCNC(=O)[C@H](O)C(C)(C)COP(=O)(O)OP(=O)(O)OC[C@H]1O[C@@H](n2cnc3c(N)ncnc32)[C@H](O)[C@@H]1OP(=O)(O)O (some centres unmarked) [methylmalonyl-CoA]
[8]; [10]
  co-purification from E. coli, UPLC-HRMS of released ligand: also with almost identical amounts of propionyl-CoA and methylmalonyl-CoA

## CCC(=O)SCCNC(=O)CCNC(=O)[C@H](O)C(C)(C)COP(=O)(O)OP(=O)(O)OC[C@H]1O[C@@H](n2cnc3c(N)ncnc32)[C@H](O)[C@@H]1OP(=O)(O)O [propionyl-CoA]
[8]; [10]
  co-purification from E. coli, UPLC-HRMS of released ligand: also with almost identical amounts of propionyl-CoA and methylmalonyl-CoA
